In patent US20260240763A1, “Inhalable Serotonin Receptor Agonist Formulations” (Pinata Holdings Inc., priority 2022, published 2026):

Test system: generalized anxiety and/or post-traumatic stress disorder (PTSD)
Test: Inhaled dry powder given to subjects for generalized anxiety and/or PTSD
Assay type: in vivo, human
Conditions: encapsulated by HPMCAS, inhaler
Protocol: Three male subjects and one subject were administered doses of 5 mg, 10 mg, and 15 mg of psilocybin. Each individual dosage level was administered about three weeks apart for the treatment of generalized anxiety and/or post-traumatic stress disorder (PTSD). In a separate experiment, the subjects were administered doses of 1 mg, 5 mg, and 10 mg of 4-AoC-DMT (O-Acetylpsilocin). Each individual dosage level was administered about three weeks apart for the treatment of generalized anxiety and/or post-traumatic stress disorder (PTSD). The dry powder pharmaceutical compositions comprised psilocybin or 4-AoC-DMT encapsulated by HPMCAS using the methods described herein (e.g., spay drying). The encapsulated dry powder was administered with an inhaler.

## CN(C)CCc1c[nH]c2cccc(OP(=O)(O)O)c12 [psilocybin, 4-phosphoryloxy-N,N-dimethyltryptamine]
Psilocybin 5 mg, 10 mg and 15 mg, four subjects
  adverse effects noted: No adverse effects

## CC(=O)Oc1cccc2[nH]cc(CCN(C)C)c12 [4-AoC-DMT, 4-Acetoxy-N,N-dimethyltryptamine]
4-AoC-DMT 1 mg and 5 mg, four subjects
  adverse effects noted: No adverse effects
4-AoC-DMT 10 mg, indicated by 3 male patients and 1 patient
  adverse effects noted: too much
Doses of 1 mg and 5 mg of 4-AoC-DMT, each about three weeks apart, three male subjects and one subject
  effect on anxiety in the subjects: reduced anxiety
